Laboratory results as given in ChEMBL document CHEMBL1201862, “PubChem BioAssay data set” (2004).
Activity calls are given as the source filed them.

Legend:
HEK293 [1] = test: HEK293T cell viability loss, resazurin readout – resazurin fluorescence, cytotoxicity control for NF-kB activator project, SAR follow-up (AID 493251); format: functional, cell-based; settings: Homo sapiens
Jurkat = test: SAR Analysis of small molecule inhibitors of […] specific antigen receptor-induced NF-kB activation in a Jurkat cell line using a luminescence assay - Set 3. [Related pubchem assays (depositor defined):AID435022, AID435025, AID465]; format: functional, cell-based; settings: Homo sapiens
HEK293 [2] = test: SAR Analysis of small molecule inhibitors of B-cell specific antigen receptor-induced NF-kB activation in a HEK-293T cell line using a luminescence assay - Set 2. [Related pubchem assays (depositor defined):AID435022, AID435025, AID489021]; format: functional, cell-based; settings: Homo sapiens
Large T antigen = Large T antigen (Simian virus 40, UniProt P03070); format: functional, Betapolyomavirus macacae;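 note: Confirmatory-stage PubChem screen for compounds that inhibit SV40 T antigen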
[3] = molecular target: T1, Histone-lysine N-methyltransferase NSD2 (Homo sapiens, UniProt O96028); format: biochemical
T1 sequence (O96028 whole entry): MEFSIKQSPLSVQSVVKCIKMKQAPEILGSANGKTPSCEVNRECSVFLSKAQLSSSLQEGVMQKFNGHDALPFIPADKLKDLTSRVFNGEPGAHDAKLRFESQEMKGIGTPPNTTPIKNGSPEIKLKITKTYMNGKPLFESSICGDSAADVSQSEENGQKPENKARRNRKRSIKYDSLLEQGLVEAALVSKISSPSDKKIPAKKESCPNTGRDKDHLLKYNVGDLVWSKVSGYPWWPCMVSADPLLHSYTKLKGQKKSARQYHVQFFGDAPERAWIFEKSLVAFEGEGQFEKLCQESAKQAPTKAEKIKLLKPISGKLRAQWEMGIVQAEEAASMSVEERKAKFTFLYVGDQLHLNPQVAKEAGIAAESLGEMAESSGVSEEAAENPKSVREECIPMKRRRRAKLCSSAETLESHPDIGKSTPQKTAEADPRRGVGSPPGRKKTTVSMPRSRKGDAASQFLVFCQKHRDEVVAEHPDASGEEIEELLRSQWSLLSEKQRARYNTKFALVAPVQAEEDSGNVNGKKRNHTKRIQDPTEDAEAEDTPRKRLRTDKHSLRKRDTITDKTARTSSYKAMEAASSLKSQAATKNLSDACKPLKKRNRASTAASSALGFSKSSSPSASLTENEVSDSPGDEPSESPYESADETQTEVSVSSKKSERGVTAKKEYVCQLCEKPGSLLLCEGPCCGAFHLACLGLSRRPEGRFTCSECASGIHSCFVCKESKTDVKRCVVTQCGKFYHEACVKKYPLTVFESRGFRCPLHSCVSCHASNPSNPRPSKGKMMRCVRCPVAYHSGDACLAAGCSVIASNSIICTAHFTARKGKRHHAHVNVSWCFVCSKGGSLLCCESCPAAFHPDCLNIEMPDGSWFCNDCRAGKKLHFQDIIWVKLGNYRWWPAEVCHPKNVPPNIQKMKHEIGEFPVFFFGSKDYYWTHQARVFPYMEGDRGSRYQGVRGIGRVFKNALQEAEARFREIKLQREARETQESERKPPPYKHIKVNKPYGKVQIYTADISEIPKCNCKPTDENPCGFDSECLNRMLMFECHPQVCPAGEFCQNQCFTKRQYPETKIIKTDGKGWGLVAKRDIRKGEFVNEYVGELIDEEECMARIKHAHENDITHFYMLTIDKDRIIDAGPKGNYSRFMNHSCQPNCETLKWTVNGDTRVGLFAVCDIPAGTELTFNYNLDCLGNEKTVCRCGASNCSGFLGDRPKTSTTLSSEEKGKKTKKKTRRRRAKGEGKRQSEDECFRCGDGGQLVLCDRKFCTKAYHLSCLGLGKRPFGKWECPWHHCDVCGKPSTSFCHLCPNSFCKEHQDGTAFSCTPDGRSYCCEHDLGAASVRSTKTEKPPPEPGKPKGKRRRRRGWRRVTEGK

[4] = molecular target: Intestinal-type alkaline phosphatase (Mus musculus, UniProt P24822); test: PubChem AID 488874; format: functional
[5] = molecular target: T2, Alkaline phosphatase, tissue-nonspecific isozyme (Homo sapiens, UniProt P05186); test: inhibition of tissue-nonspecific alkaline phosphatase – biochemical, dose response (AID 488882); format: functional
T2 sequence (P05186 whole entry): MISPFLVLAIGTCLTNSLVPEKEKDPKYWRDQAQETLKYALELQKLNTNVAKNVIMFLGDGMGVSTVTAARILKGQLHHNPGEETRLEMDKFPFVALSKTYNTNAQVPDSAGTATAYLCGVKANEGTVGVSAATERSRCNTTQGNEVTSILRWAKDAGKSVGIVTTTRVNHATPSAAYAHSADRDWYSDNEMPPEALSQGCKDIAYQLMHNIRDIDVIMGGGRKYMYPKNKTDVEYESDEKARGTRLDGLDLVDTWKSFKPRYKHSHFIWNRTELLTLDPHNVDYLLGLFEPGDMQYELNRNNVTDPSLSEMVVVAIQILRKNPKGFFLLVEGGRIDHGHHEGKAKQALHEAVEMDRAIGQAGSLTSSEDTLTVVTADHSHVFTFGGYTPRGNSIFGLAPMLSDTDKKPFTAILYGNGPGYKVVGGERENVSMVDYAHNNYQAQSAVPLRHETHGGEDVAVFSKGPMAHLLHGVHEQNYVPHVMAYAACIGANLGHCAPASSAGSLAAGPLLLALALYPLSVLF

[6] = molecular target: FAD-linked sulfhydryl oxidase ALR (Homo sapiens, UniProt P55789); test: ALR-catalysed DTT oxidation blockers – biochemical, H2O2 detection, luminescence, cherry-pick, dose response (AID 493248)
Caspase-6 = molecular target: T3, Caspase-6 (Homo sapiens, UniProt P55212); test: inhibition of CASP6 peptide cleavage – biochemical, VEID-R110 fluorescence, cherry-pick, dose response (AID 720632)
T3 sequence (P55212 whole entry): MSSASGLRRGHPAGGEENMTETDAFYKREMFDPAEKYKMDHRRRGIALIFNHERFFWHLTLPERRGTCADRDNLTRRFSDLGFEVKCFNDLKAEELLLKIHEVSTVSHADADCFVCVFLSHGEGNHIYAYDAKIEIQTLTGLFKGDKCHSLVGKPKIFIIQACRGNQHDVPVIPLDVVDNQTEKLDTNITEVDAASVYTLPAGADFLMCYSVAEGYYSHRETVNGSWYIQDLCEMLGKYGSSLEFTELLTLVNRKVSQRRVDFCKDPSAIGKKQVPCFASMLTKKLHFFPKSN

Albumin = Albumin (Bos taurus, UniProt P02769); test: Counterscreen for inhibitors of T-cell receptor (TCR)-CD3 interaction: Fluorescence-based biochemical high throughput dose response assay to identify inhibitors of T-cell receptor (TCR)-CD3 interaction using a TAMRA-labeled BSA probe.; format: functional
Vero = test: viability of Vero cells under compound – cytotoxicity control for flavivirus capping enzyme inhibitors (AID 588742); format: functional; settings: Chlorocebus sabaeus
[7] = molecular target: T4, Intestinal-type alkaline phosphatase (Homo sapiens, UniProt P09923); test: inhibition of human intestinal alkaline phosphatase – biochemical, luminescent, uHTS hits, set 2, dose response (AID 488793); format: functional
[8] = viability of uninfected HEp-2 cells – cell-based, HTS, cytotoxicity control for RSV inhibitor project, dose response (AID 2410); format: functional; settings: human respiratory syncytial virus
[9] = molecular target: T4, Intestinal-type alkaline phosphatase; test: Dose Response confirmation of uHTS hits from a small molecule inhibitors of human intestinal alkaline phosphatase via a luminescent assay. [Related pubchem assays (depositor defined):AID2544, AID2574]; format: functional

T4 sequence (P09923 whole entry): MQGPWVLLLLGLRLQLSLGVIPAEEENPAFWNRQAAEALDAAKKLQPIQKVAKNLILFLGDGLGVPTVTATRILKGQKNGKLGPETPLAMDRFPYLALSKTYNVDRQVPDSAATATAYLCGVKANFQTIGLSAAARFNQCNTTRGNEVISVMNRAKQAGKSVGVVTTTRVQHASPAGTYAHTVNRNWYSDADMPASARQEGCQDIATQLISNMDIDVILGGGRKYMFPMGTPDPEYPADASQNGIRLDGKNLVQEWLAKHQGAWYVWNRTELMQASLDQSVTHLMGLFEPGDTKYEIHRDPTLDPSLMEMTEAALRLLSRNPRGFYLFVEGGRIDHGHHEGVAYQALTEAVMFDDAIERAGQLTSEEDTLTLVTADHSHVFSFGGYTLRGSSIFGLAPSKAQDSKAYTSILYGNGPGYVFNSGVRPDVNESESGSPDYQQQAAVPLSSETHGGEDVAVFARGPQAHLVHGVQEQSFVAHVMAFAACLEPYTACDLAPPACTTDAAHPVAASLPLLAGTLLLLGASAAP
Sequence of Albumin (P02769 whole entry): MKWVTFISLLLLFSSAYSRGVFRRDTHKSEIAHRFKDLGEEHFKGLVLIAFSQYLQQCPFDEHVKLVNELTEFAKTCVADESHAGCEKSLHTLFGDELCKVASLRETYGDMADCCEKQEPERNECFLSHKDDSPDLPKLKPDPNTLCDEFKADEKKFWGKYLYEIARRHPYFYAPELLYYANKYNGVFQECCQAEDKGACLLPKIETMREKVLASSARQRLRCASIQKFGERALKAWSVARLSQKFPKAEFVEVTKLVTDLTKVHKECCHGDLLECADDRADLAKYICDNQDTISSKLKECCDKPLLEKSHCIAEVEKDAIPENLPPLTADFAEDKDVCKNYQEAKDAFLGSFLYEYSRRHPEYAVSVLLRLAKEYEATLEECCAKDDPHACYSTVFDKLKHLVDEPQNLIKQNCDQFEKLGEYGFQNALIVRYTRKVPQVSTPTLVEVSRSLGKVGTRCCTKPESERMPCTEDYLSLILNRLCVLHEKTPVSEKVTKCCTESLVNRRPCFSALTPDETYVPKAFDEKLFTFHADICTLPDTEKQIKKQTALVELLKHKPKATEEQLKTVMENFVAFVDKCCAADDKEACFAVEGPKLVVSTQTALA
Sequence of Large T antigen (P03070 whole entry): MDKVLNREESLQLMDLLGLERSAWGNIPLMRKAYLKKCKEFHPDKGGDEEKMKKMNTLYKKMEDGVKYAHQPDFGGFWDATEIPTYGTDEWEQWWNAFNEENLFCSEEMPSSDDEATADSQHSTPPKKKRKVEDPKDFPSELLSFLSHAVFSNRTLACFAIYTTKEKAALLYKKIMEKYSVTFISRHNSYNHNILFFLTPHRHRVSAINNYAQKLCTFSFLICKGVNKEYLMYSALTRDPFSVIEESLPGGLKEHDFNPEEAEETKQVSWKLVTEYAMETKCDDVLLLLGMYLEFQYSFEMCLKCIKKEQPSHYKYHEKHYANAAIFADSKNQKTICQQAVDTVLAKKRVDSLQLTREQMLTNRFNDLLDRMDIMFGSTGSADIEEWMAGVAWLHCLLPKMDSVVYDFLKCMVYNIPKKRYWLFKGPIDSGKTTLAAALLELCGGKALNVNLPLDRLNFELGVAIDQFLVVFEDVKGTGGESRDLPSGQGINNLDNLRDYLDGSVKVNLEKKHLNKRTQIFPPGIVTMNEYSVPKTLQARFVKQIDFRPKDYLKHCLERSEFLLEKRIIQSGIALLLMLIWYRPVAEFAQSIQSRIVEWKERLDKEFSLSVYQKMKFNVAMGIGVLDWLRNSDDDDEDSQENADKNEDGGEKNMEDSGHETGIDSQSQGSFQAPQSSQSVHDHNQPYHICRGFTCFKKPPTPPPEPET
Sequence of FAD-linked sulfhydryl oxidase ALR (P55789 whole entry): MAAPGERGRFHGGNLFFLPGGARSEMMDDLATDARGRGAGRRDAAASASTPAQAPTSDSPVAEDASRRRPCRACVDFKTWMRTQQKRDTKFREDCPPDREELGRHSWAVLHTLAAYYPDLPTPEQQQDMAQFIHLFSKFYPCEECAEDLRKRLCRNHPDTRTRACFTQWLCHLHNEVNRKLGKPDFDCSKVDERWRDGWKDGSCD
Sequence of Intestinal-type alkaline phosphatase (Mus musculus, UniProt P24822) (P24822 whole entry): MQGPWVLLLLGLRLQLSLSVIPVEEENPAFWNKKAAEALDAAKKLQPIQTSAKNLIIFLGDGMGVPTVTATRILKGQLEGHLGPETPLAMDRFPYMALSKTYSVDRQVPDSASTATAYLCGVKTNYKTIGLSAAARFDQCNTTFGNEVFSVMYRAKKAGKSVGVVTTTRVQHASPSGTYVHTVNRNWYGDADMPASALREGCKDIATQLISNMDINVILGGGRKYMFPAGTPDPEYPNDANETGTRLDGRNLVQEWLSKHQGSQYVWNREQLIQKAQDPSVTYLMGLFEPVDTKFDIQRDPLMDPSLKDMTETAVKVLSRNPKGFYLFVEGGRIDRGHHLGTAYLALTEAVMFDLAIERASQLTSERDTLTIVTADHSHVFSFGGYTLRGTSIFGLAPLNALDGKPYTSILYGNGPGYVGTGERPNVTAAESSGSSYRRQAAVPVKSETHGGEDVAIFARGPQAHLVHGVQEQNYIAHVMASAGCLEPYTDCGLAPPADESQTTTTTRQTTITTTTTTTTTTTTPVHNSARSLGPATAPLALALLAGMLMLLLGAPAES

Row | Compound | IC50 (HEK293 [1]) | IC50 (Jurkat) | IC50 (HEK293 [2]) | IC50 (Large T antigen) | AC50 [3] | IC50 [4] | IC50 [5] | AC50 [6] | AC50 (Caspase-6) | IC50 (Albumin) | CC50 (Vero) | IC50 [7] | CC50 [8] | IC50 [9]
1 | CNC(=O)CCc1nc(-c2ccc(OC)cc2)no1 | > 80 µM (inactive) | > 80 µM (inactive) | > 80 µM (inactive) |  |  |  |  |  |  |  |  |  |  | 
2 | O=C1Nc2ccccc2/C1=N/N=C/c1ccc(O)c(O)c1 |  |  |  | 3.29 µM (active) | 0.407 µM (active) | 4.79 µM (active) | 3.29 µM (active) | 0.83 µM (active) | 0.226 µM (active) | > 94.1 µM (inactive) | > 40 µM (active) | 7.63 µM (active) | 22.4 µM (active) | 7.95 µM (active)
